Data as given in patent US8480620B2, “Coatings with tunable solubility profile for drug-coated balloon” (Abbott Cardiovascular Systems Inc., priority 2009, dated 2013).

Assay: Solubility enhancement of zotarolimus with select excipient solutions
Format: physicochemical
Conditions: Phosphate buffered saline; n = 3
Source text: Table 1 provides non-limiting examples of the solubility data for excipients that can be used in accordance with the disclosed subject matter:
As illustrated, in Table 1 the excipients provide for increased solubility for the cytostatic drug, zotarolimus, as compared to saline alone.

Zotarolimus Solubility: 0.53 µg/mL
SMILES: CO[C@H]1C[C@@H]2CC[C@@H](C)[C@@](O)(O2)C(=O)C(=O)N2CCCC[C@H]2C(=O)O[C@H]([C@H](C)C[C@@H]2CC[C@H](n3cnnn3)[C@H](OC)C2)CC(=O)[C@H](C)/C=C(\C)[C@@H](O)[C@@H](OC)C(=O)[C@H](C)C[C@H](C)/C=C/C=C/C=C/1C [Zotarolimus, zotarolimus]
